Consider three compounds from patent US9504674B2, “TrkB agonists and methods of use” (EMORY UNIVERSITY, priority 2010, dated 2016).

For assay [1], the system named is dentate gyrus progenitor proliferation. The assay is described as follows: Neurogenesis assay (BrdU positive cells in dentate gyrus). The note with it: 5 mg/kg oral for 21 days, BrdU 50 mg/kg i.p., 2 h. It is filed as in vivo, mouse. The protocol:
4′-Dimethylamino-7,8-dihydroxyflavone and 7,8-dihydroxyflavone promote neurogenesis. Male C57BL/6J mice were orally administrated with 5 mg/kg 4′-DMA-7,8-DHF and 7,8-DHF and vehicle solvent for 21 days and followed by 50 mg/kg BrdU ip injection. In 2 h, the mice were perfused and brain sections were immunostained with anti-BrdU and DAPI. The positive cells in dentate gyms were highlighted by arrow (left panels). Quantitative analysis of the BrdU positive cells in dentate gyms (right panel).
Adult male mice (2-3 months old) were orally injected with Saline, 4′-DMA-7,8-DHF and 7,8-DHF (5 mg/kg) for 21 days. Then Brdu (50 mg/kg) was i.p. injected. In 2 h, the mice were perfused with 4% paraformaldehyde. Immunohistochemical staining was performed on formalin-fixed paraffin-embedded sections. Sections from brain were cut, deparaffinized in xylene and rehydrated in graded alcohols. The slides were boiled in 10 mM citric acid (pH 6.0) for 10 min followed by an incubation in 2 N HCl for 10 min in room temperature. The slides were then permeabilized and blocked with 1% BSA in 0.2% PBST. The incorporated BrdU were stained using anti-BrdU-FITC (Abcam, USA) at 4° C. for 16 hr. […] The slides were finally mounted with AquaMount (Lerner Laboratories, USA) containing 0.01% 1,4-diazobicyclo(2,2,2)octane and examined under a fluorescence microscope. […]

The next assay addresses T1, TrkB F616A (Mus musculus, UniProt P15209, F616A).
T1 construct: from tissue; host or cells: TrkB F616A knock-in mice (brain; whole animal in the forced swim test)
Description: Forced swim test in TrkB F616A knockin mice with or without 1NMPP1. The note with it: drugs administrated for 5 days; for immobility time in forced swim test, TrkB F616A knockin mice, after 1NMPP1 treatment: 1NMPP1 (25 μM) in drinking water; for immobility time in forced swim test, TrkB F616A knockin mice, saline group: regular drinking water. It is filed as in vivo. The protocol:
Male TrkB knockin mice were given the regular drinking water or 1NMPP1 (25 μM) containing drinking water one day before we started to inject the drugs and sustained throughout the whole experiment. The indicated control (saline) and drugs were administrated for 5 days. […] None of the drugs produced a significant change in 1NMPP1 treated TrkB KI mice (n=6 to 7 mice) as compared to control.
TrkB F616A knockin mice were used to assess whether the behavior responses by 7,8-DHF and its derivative is mediated by TrkB receptor. Transgenic mice were subjected to saline or 1NMPP1 pretreatment, respectively.

The subject of a further assay is Akt. Description: Akt activation / p-Akt 473 ELISA in primary cortical neurons. The assay is classed as cell-based, rat. The note with it: 500 nM. The protocol: The cell lysates (20 μg/sample) from the neurons treated with various indicated drugs were analyzed by p-Akt ELISA. The quantitative p-Akt activity in ELISA correlated with TrkB activity. Results were expressed as mean (SEM(*P<0.05, compared with the vehicle control group, Student t test, n=3).
Phospho-Akt ELISA assay by the synthetic compounds in cortical neurons. Primary cortical cultures from […] rat embryos were treated with 500 nMof various 7,8-DHF derivatives. The cell lysates were analyzed by the ELISA (left panel) (*, P<0.05; ***, P<0.001 vs vehicle, Student's t test). Different doses of 4′-DMA-7,8-DHF and 7,8-DHF were incubated with primary cortical neurons for 15 min. The cell lysates (20 μg) were analyzed with p-Akt ELISA (right panel) (*, P<0.05; **, P<0.01; ***, P<0.001 vs control; one-way ANOVA: b, P<0.01; c, P<0.001 vs 7,8-DHF at same concentration, Student's t test). […]
7,8-dihydroxyflavone (7,8-DHF) is a small molecular TrkB agonist. […] The cell lysates were analyzed by immunoblotting. […]
To compare the TrkB activation by these synthetic compounds, primary cortical cultures were prepared. […] TrkB activation was monitored at different time points.
Additional compounds are listed as designated from a to m (FIG. 6A). […] The cell lysates were analyzed by immunoblotting. […] Moreover, p-Akt ELISA was monitored to quantitatively analyze the agonistic activities of these compounds.
(In general: ELISA stands for enzyme-linked immunosorbent assay.)

T1 sequence (P15209 32-821 F616A): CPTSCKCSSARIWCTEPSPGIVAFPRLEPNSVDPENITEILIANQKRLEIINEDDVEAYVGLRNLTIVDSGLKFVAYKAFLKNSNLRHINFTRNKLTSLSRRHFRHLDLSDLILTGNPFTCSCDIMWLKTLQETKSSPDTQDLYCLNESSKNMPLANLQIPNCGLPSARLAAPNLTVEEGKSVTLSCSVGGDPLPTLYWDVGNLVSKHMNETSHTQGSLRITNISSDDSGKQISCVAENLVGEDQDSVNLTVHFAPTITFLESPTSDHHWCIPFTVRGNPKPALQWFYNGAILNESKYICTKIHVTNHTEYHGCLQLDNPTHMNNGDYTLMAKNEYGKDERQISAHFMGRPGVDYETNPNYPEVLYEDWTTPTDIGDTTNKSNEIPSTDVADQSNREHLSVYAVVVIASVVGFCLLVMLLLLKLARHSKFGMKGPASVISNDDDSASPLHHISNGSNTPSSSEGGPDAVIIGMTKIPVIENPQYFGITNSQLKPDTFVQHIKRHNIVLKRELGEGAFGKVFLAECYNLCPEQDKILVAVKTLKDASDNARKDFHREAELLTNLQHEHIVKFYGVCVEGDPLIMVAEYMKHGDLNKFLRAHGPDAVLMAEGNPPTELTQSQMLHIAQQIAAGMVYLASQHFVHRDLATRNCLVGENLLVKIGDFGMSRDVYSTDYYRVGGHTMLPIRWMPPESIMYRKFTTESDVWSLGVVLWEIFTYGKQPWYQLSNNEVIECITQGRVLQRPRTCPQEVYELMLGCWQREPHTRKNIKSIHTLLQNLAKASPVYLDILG

Consider `CN(C)c1ccc(-c2cc(=O)c3ccc(O)c(O)c3o2)cc1` [4′-DMA-7,8-DHF, 4′-dimethylamino-7,8-dihydroxyflavone], for which the “neurogenesis (BrdU) compared to vehicle control” value in assay [1] was “significantly increased neurogenesis”. For the same compound, at TrkB F616A, the “immobility time in forced swim test, TrkB F616A knockin mice, after 1NMPP1 treatment” value is “neither 4′-DMA-7,8-DHF nor 7,8-DHF had any significant effect on the immobility time” and the “immobility time in forced swim test, TrkB F616A knockin mice, saline group” value is listed as “substantially reduced the immobility time”. Besides, the “Akt activation pattern over time” value in the assay with Akt (primary neurons, time course) is given as “temporally coupled to TrkB activation”.
Take `O=c1cc(-c2ccccc2)oc2c(O)c(O)ccc12` [7,8-DHF, 7,8-dihydroxyflavone, reference compound]: the “neurogenesis (BrdU) compared to vehicle control” value in assay [1] is “significantly increased neurogenesis”. On TrkB F616A, the “immobility time in forced swim test, TrkB F616A knockin mice, after 1NMPP1 treatment” value is given as “neither 4′-DMA-7,8-DHF nor 7,8-DHF had any significant effect on the immobility time” and the “immobility time in forced swim test, TrkB F616A knockin mice, saline group” value is “substantially reduced the immobility time”.
In the case of `CN(C)c1ccc(-c2cc(=O)c3ccc4nc[nH]c4c3o2)cc1` [compound m, 8-(4-(dimethylamino)phenyl)chromeno[7,8-d]imidazol-6(1H)-one], the “agonistic activity by p-Akt ELISA in neurons” value in the assay on Akt (20 min, primary rat cortical neurons (13 DIV)) is recorded as “possesses the strongest effect in activating TrkB receptor”.
